Test results: ChEMBL document CHEMBL4145510, “Discovery of a Keap1-dependent peptide PROTAC to knockdown Tau by ubiquitination-proteasome degradation pathway” (Eur J Med Chem, 2018)
Activity calls are given as the source filed them. The calls are words filed in the database; no cut-off is given here.

Experiments:
[1] = molecular target: T1, Kelch-like ECH-associated protein 1/Microtubule-associated protein tau/Cullin-3 (Homo sapiens) (UniProt P10636+Q14145+Q13618); assay: Induction of Keap1/Cul3- mediated EGFP tagged Tau (unknown origin) degradation in human SH-SY5Y cells at 20 uM after 10 hrs by flow cytometry analysis; type: cell-based
[2] = molecular target: Microtubule-associated protein tau (Homo sapiens, UniProt P10636); assay: Binding affinity to human Tau (1 to 441 residues) by ITC method
[3] = Drug uptake in human SH-SY5Y cells using N-terminal TAMRA labeled compound at 10 uM after 8 hrs by DAPI staining-based laser scanning confocal microscopic analysis; type: ADME, cell-based
[4] = molecular target: T1, Kelch-like ECH-associated protein 1/Microtubule-associated protein tau/Cullin-3 (Homo sapiens); assay: Induction of Keap1/Cul3- mediated EGFP tagged Tau (unknown origin) degradation in human SH-SY5Y cells at 10 uM incubated for 10 hrs in presence of proteasome inhibitor MG132 by Western blot analysis; type: cell-based
[5] = molecular target: Kelch-like ECH-associated protein 1 (Homo sapiens, UniProt Q14145); assay: Binding affinity to human Keap1 (322 to 609 residues) by ITC method
[6] = Induction of Keap1/Cul3- mediated EGFP tagged Tau (unknown origin) degredation in mouse Neuro2a cells by Western blot analysis; type: cell-based
[7] = molecular target: Cullin-3/Microtubule-associated protein tau (Homo sapiens) (UniProt P10636+Q13618); assay: Induction of Cul3- mediated EGFP tagged Tau (unknown origin) degradation in human SH-SY5Y cells harboring Keap1 siRNA at 10 uM by Western blot analysis; type: cell-based
[8] = molecular target: Kelch-like ECH-associated protein 1/Microtubule-associated protein tau (Homo sapiens) (UniProt P10636+Q14145); assay: Binding affinity to Keap1/Tau in human SH-SY5Y cells at 10 to 20 uM by Western blot analysis; type: cell-based
[9] = Induction of Keap1/Cul3- mediated EGFP tagged Tau (unknown origin) degradation in rat PC12 cells by Western blot analysis; type: cell-based
[10] = Drug uptake in human SH-SY5Y cells using N-terminal TAMRA labeled compound at 10 uM after 12 hrs by Flow cytometry analysis; type: ADME, cell-based
[11] = molecular target: T1, Kelch-like ECH-associated protein 1/Microtubule-associated protein tau/Cullin-3 (Homo sapiens); assay: Induction of Keap1/Cul3- mediated EGFP tagged Tau (unknown origin) degradation in human SH-SY5Y cells at 10 uM incubated for 10 hrs in absence of proteasome inhibitor MG132 by Western blot analysis; type: cell-based

T1 sequence (P10636 whole entry, looked up, the tested form may be a part): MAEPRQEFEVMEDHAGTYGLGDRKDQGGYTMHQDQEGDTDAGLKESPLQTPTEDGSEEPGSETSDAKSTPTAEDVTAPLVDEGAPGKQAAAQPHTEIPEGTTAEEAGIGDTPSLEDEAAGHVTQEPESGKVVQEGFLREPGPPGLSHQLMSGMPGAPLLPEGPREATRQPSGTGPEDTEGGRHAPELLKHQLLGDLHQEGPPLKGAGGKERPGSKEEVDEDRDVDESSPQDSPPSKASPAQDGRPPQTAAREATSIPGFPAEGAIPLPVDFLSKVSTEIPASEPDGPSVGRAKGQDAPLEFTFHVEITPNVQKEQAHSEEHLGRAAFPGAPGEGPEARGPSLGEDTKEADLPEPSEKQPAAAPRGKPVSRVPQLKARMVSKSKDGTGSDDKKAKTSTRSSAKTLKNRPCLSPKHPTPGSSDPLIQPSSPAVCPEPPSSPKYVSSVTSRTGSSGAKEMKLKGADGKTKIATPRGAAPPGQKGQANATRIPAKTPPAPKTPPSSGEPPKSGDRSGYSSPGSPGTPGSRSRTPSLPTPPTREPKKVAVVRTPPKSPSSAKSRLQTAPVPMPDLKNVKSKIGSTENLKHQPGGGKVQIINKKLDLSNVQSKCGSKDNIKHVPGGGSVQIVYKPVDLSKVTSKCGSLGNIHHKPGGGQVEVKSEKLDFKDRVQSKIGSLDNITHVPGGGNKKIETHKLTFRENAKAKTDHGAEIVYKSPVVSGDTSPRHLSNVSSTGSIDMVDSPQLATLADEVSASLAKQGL
T1 sequence (Q13618 whole entry, looked up, the tested form may be a part): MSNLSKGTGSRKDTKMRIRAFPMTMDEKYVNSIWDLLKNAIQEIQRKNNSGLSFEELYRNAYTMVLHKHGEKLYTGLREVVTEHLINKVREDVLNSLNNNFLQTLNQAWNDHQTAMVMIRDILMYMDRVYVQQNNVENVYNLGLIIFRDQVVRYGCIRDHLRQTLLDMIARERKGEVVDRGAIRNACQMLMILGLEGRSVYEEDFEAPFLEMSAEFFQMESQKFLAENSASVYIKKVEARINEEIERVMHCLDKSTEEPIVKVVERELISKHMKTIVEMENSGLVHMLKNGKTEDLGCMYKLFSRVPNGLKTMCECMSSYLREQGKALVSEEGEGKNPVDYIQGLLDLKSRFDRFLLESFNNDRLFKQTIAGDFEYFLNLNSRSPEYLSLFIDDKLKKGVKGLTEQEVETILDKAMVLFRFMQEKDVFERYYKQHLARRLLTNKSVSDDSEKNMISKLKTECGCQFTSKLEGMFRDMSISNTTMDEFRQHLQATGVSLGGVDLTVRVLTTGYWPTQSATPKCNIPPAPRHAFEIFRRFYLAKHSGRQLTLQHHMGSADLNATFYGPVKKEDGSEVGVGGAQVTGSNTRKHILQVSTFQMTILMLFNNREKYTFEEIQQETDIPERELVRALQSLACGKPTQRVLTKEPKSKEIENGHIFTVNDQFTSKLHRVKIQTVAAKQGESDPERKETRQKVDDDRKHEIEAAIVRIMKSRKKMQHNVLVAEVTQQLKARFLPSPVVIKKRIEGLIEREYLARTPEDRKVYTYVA
T1 sequence (Q14145 whole entry, looked up, the tested form may be a part): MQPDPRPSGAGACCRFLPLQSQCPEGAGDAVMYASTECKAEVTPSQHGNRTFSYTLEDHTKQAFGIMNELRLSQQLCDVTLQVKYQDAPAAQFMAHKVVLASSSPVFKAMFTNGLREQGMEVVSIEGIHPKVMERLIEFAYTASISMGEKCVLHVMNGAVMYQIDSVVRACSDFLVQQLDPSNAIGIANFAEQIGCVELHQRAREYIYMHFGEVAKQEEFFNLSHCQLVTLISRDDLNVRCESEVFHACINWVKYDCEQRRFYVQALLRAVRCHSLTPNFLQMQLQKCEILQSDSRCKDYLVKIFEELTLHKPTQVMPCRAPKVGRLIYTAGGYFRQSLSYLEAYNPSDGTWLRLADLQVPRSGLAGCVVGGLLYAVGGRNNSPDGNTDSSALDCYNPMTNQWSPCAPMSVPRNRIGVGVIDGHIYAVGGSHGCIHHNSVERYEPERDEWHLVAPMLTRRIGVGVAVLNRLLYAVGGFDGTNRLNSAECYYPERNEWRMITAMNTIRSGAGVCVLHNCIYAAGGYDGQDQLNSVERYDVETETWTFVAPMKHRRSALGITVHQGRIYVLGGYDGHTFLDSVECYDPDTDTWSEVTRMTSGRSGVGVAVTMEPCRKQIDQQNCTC
Chain of Cullin-3/Microtubule-associated protein tau (Homo sapiens) (P10636 whole entry, looked up): as the sequence (P10636 whole entry, looked up, the tested form may be a part) above
Chain of Cullin-3/Microtubule-associated protein tau (Homo sapiens) (Q13618 whole entry, looked up): as the sequence (Q13618 whole entry, looked up, the tested form may be a part) above
Chain of Kelch-like ECH-associated protein 1 (Q14145 whole entry, the tested form may be a part): as the sequence (Q14145 whole entry, looked up, the tested form may be a part) above
Chain of Microtubule-associated protein tau (P10636 whole entry, the tested form may be a part): as the sequence (P10636 whole entry, looked up, the tested form may be a part) above
Chain of Kelch-like ECH-associated protein 1/Microtubule-associated protein tau (Homo sapiens) (P10636 whole entry, looked up): as the sequence (P10636 whole entry, looked up, the tested form may be a part) above
Chain of Kelch-like ECH-associated protein 1/Microtubule-associated protein tau (Homo sapiens) (Q14145 whole entry, looked up): as the sequence (Q14145 whole entry, looked up, the tested form may be a part) above

With `CC(=O)N[C@@H](Cc1ccc(O)cc1)C(=O)N[C@@H](CCC(N)=O)C(=O)N[C@@H](CCC(N)=O)C(=O)N[C@@H](Cc1ccc(O)cc1)C(=O)N[C@@H](CCC(N)=O)C(=O)N[C@@H](CC(=O)O)C(=O)N[C@@H](C)C(=O)N[C@H](C(=O)N[C@@H](C)C(=O)N[C@@H](CC(=O)O)C(=O)N[C@@H](CCC(=O)O)C(=O)N[C@@H](CCC(N)=O)C(=O)NCC(=O)NCC(=O)NCC(=O)N[C@@H](CO)C(=O)NCC(=O)NCC(=O)N[C@@H](CC(C)C)C(=O)N[C@@H](CC(=O)O)C(=O)N1CCC[C@H]1C(=O)N[C@@H](CCC(=O)O)C(=O)N[C@H](C(=O)NCC(=O)N[C@@H](CCC(=O)O)C(=O)N[C@@H](Cc1ccc(O)cc1)C(=O)N[C@@H](CC(C)C)C(=O)N[C@H](CCCNC(=N)N)C(=O)N[C@H](CCCNC(=N)N)C(=O)N[C@H](CCCNC(=N)N)C(=O)N[C@H](CCCNC(=N)N)C(=O)N[C@H](CCCNC(=N)N)C(=O)N[C@H](CCCNC(=N)N)C(=O)N[C@H](CCCNC(=N)N)C(=O)N[C@H](CCCNC(=N)N)C(=O)O)[C@@H](C)O)[C@@H](C)O` the Activity [1] was “inactive”.
In the case of `CC(=O)N[C@@H](Cc1ccc(O)cc1)C(=O)N[C@@H](CCC(N)=O)C(=O)N[C@@H](CCC(N)=O)C(=O)N[C@@H](Cc1ccc(O)cc1)C(=O)N[C@@H](CCC(N)=O)C(=O)N[C@@H](CC(=O)O)C(=O)N[C@@H](C)C(=O)N[C@H](C(=O)N[C@@H](C)C(=O)N[C@@H](CC(=O)O)C(=O)N[C@@H](CCC(=O)O)C(=O)N[C@@H](CCC(N)=O)C(=O)NCC(=O)NCC(=O)N[C@@H](CO)C(=O)NCC(=O)N[C@@H](CO)C(=O)N[C@@H](CC(C)C)C(=O)N[C@@H](CC(=O)O)C(=O)N1CCC[C@H]1C(=O)N[C@@H](CCC(=O)O)C(=O)N[C@H](C(=O)NCC(=O)N[C@@H](CCC(=O)O)C(=O)N[C@@H](Cc1ccccc1)C(=O)N[C@@H](CC(C)C)C(=O)N[C@H](CCCNC(=N)N)C(=O)N[C@H](CCCNC(=N)N)C(=O)N[C@H](CCCNC(=N)N)C(=O)N[C@H](CCCNC(=N)N)C(=O)N[C@H](CCCNC(=N)N)C(=O)N[C@H](CCCNC(=N)N)C(=O)N[C@H](CCCNC(=N)N)C(=O)N[C@H](CCCNC(=N)N)C(=O)O)[C@@H](C)O)[C@@H](C)O`, the Activity [1] is reported as “Active”.
With `CC(=O)N[C@@H](CCCCN)C(=O)N[C@@H](CC(=O)O)C(=O)N[C@@H](Cc1ccc(O)cc1)C(=O)N[C@@H](CCC(=O)O)C(=O)N[C@@H](CCC(=O)O)C(=O)N[C@H](C(=O)NCC(=O)N[C@H](C(=O)N[C@@H](CC(=O)O)C(=O)N[C@@H](CO)C(=O)N[C@H](C(=O)N[C@@H](CCC(=O)O)C(=O)NCC(=O)N[C@@H](CO)C(=O)NCC(=O)N[C@@H](CO)C(=O)N[C@@H](CC(C)C)C(=O)N[C@@H](CC(=O)O)C(=O)N1CCC[C@H]1C(=O)N[C@@H](CCC(=O)O)C(=O)N[C@H](C(=O)NCC(=O)N[C@@H](CCC(=O)O)C(=O)N[C@@H](Cc1ccc(O)cc1)C(=O)N[C@@H](CC(C)C)C(=O)N[C@H](CCCNC(=N)N)C(=O)N[C@H](CCCNC(=N)N)C(=O)N[C@H](CCCNC(=N)N)C(=O)N[C@H](CCCNC(=N)N)C(=O)N[C@H](CCCNC(=N)N)C(=O)N[C@H](CCCNC(=N)N)C(=O)N[C@H](CCCNC(=N)N)C(=O)N[C@H](CCCNC(=N)N)C(=O)O)[C@@H](C)O)C(C)C)C(C)C)C(C)C` the Activity [1] was “Active”.
For `CC(=O)N[C@@H](Cc1ccc(O)cc1)C(=O)N[C@@H](CCC(N)=O)C(=O)N[C@@H](CCC(N)=O)C(=O)N[C@@H](Cc1ccc(O)cc1)C(=O)N[C@@H](CCC(N)=O)C(=O)N[C@@H](CC(=O)O)C(=O)N[C@@H](C)C(=O)N[C@H](C(=O)N[C@@H](C)C(=O)N[C@@H](CC(=O)O)C(=O)N[C@@H](CCC(=O)O)C(=O)N[C@@H](CCC(N)=O)C(=O)NCC(=O)NCC(=O)N[C@@H](CO)C(=O)NCC(=O)N[C@@H](CO)C(=O)N[C@@H](CC(C)C)C(=O)N[C@@H](CC(=O)O)C(=O)N1CCC[C@H]1C(=O)N[C@@H](CCC(=O)O)C(=O)N[C@H](C(=O)NCC(=O)N[C@@H](CCC(=O)O)C(=O)N[C@@H](Cc1ccc(O)cc1)C(=O)N[C@@H](CC(C)C)C(=O)N[C@H](CCCNC(=N)N)C(=O)N[C@H](CCCNC(=N)N)C(=O)N[C@H](CCCNC(=N)N)C(=O)N[C@H](CCCNC(=N)N)C(=O)N[C@H](CCCNC(=N)N)C(=O)N[C@H](CCCNC(=N)N)C(=O)N[C@H](CCCNC(=N)N)C(=O)N[C@H](CCCNC(=N)N)C(=O)O)[C@@H](C)O)[C@@H](C)O`, the Kd [2] was 0.763 µM, the Drug uptake [3] was “Active” and the Activity [4] was “inactive”. For the same compound, the Kd [5] was 0.0228 µM, the Activity [6] was “Dose-dependent effect” and the Activity [7] was “inactive”. The Activity [8] was “Active”, the Activity [9] was “Dose-dependent effect” and the Drug uptake [10] was “Active”. The Activity [1] was “Active” and the Activity [11] was “Active”.
For `CC(=O)N[C@@H](Cc1ccc(O)cc1)C(=O)N[C@@H](CCC(N)=O)C(=O)N[C@@H](CCC(N)=O)C(=O)N[C@@H](Cc1ccc(O)cc1)C(=O)N[C@@H](CCC(N)=O)C(=O)N[C@@H](CC(=O)O)C(=O)N[C@@H](C)C(=O)N[C@H](C(=O)N[C@@H](C)C(=O)N[C@@H](CC(=O)O)C(=O)N[C@@H](CCC(=O)O)C(=O)N[C@@H](CCC(N)=O)C(=O)NCC(=O)NCC(=O)N[C@@H](CO)C(=O)NCC(=O)N[C@@H](CO)C(=O)N[C@@H](CC(C)C)C(=O)N[C@@H](CC(=O)O)C(=O)N1CCC[C@H]1C(=O)N[C@@H](C)C(=O)N[C@H](C(=O)NCC(=O)N[C@@H](CCC(=O)O)C(=O)N[C@@H](Cc1ccc(O)cc1)C(=O)N[C@@H](CC(C)C)C(=O)N[C@H](CCCNC(=N)N)C(=O)N[C@H](CCCNC(=N)N)C(=O)N[C@H](CCCNC(=N)N)C(=O)N[C@H](CCCNC(=N)N)C(=O)N[C@H](CCCNC(=N)N)C(=O)N[C@H](CCCNC(=N)N)C(=O)N[C@H](CCCNC(=N)N)C(=O)N[C@H](CCCNC(=N)N)C(=O)O)[C@@H](C)O)[C@@H](C)O`, the Activity [4] was “inactive”, the Activity [7] was “inactive” and the Activity [1] was “inactive”. For the same compound, the Activity [11] was “inactive”.
